We go through 20 molecules from patent US20250241906A1, “ANABOLIC DRUGS STIMULATING TYPE II COLLAGEN PRODUCTION FROM CHONDROCYTES OR THEIR PROGENITORS” (UNIVERSITY OF CENTRAL FLORIDA RESEARCH FOUNDATION, INC., priority 2022, published 2025).

Counter-ions that a name gives are not always drawn.

The test system of assay [1] is type II collagen promoter (COL2A1-GLuc) in primary rabbit chondrocytes. Nature of the assay: COL2A1-GLuc primary rabbit chondrocyte 3D aggregate luciferase assay. Type of assay: cell-based. The note with it: day 21; for luminescence with a single vitamin or mineral vs basal media alone: one factor at a time; for luminescence: basal media alone ~40,000 RLU. The method, then: Chondrogenic Culture. Rabbit COL2A1-GLuc were thawed and seeded in growth media at 6000 cells/cm^2 and expanded to 90-100% confluence in physioxia. Cells were trypsinized (0.25% Trypsin/EDTA; Corning), resuspended in basal chondrogenic media (93.24% High-Glucose DMEM (Gibco), 1% dexamethasone 10^−5 M (Sigma), 1% ITS+premix (Becton-Dickinson), 1% Glutamax (Hyclone), 1% 100 mM Sodium Pyruvate (Hyclone), 1% MEM Non-Essential Amino Acids (Hyclone), 0.26% L-Ascorbic Acid Phosphate 50 mM (Wako), 0.5% Fungizone (Life Technologies) with TGF-β1 (Peprotech) and seeded as described below.
Generation and Maintenance of 3D Aggregates. To generate 3D aggregates, cells were seeded at 50,000 cells per well (in 96-well cell repellent u-bottom plates, GreinerBio) and then centrifuged at 500 RCF, 5 min. For the TGF-β1 dose response studies, that serve as positive controls for the reporter cells, aggregates were cultured in basal chondrogenic media and different concentrations of TGF-β1 ranging from 0-10 ng/ml. For the DoE studies, aggregates were cultured in basal chondrogenic media (1 ng/ml TGF-β1) as a control or basal media supplemented with vitamins and minerals (Table 3 and Table 5). Plates were cultured for three weeks in physioxia, media was sampled and replaced three times a week with respective medium. An OT-2 (Opentrons) python coded robotic pipette, programmed at an aspiration height of 2 mm from the bottom of the wells and aspiration rate of 40 μl/s was utilized for media preparation, cell feeding, and media sampling for luciferase assay. After three weeks, cell aggregates were either fixed in neutral buffered formalin for histology or medium removed and aggregates frozen dry (−20° C.) for biochemical assays.
Luciferase Assay. Cell culture medium sampled from the seeded 96-wells (20 μL/well) was assessed using a stabilized Gaussia Luciferase buffer at a final concentration of 0.09 M MES, 0.15M Ascorbic Acid, and 4.2 μM Coelenterazine in white 96-well plates. Luminescence was measured in a plate reader (25° C., relative light units, En Vision plate reader). An OT-2 (Opentrons) python coded robotic pipette was utilized for luciferase buffer addition to white plates (GreinerBio).

Assay [2] deals with type II collagen promoter (COL2A1-Gaussia luciferase) in primary human chondrocytes. In words: HuCol2gLuc 3D aggregate type II collagen promoter-driven Gaussia luciferase assay. The format is cell-based. Conditions: for stimulation of type II collagen production in the screen of natural products: NCI Natural Products Set V, 5 μM continuously, 22-day assay. The method, then:
Chondrogenic Culture. Human COL2A1-GLuc or uninfected cells were thawed and seeded in growth media on synoviocyte matrix at 6,000 cells/cm^2 and expanded to 90-100% confluence in physioxia. Cells were trypsinized (0.25% Trypsin/EDTA; Corning), resuspended in growth media (for monolayer culture) or chondrogenic differentiation media for 3D aggregates (93.24% High-Glucose DMEM (Gibco), 1% dexamethasone 10^−5M (Sigma), 1% ITS+premix (Becton-Dickinson), 1% Glutamax (Hyclone), 1% 100 mM Sodium Pyruvate (Hyclone), 1% MEM Non-Essential Amino Acids (Hyclone), 0.26% L-Ascorbic Acid Phosphate 50 mM (Wako), 0.5% Fungizone (Life Technologies) with TGF-β1 (Peprotech) and seeded as described below.
Generation and Maintenance of 3D aggregates. To generate 3D aggregates, cells were seeded at 50,000 cells per well (in 96-well cell repellent u-bottom plates, GreinerBio) and then centrifuged at 500 RCF, 5 min. For the initial drug screen, aggregates were cultured in basal chondrogenic media (1 ng/ml TGF-β1) alone, with DMSO (vehicle control) or 5 μM of the drug compounds from the NCI library (Natural Products V, NCI). For candidate validation and subsequent studies aggregates were cultured in basal chondrogenic media (10 ng/ml TGF-β1) alone, with DMSO (vehicle control) or compounds as indicated in the results. Aggregates were cultured for three weeks in physioxic conditions, culture medium was sampled and replaced three times a week with fresh medium. An OT-2 (Opentrons) python coded robotic pipette, programmed at an aspiration height of 2 mm from the bottom of the wells and aspiration rate of 40 μl/s was utilized for addition of compound, cell feeding, and media sampling for luciferase assay. After three weeks, cell aggregates were either fixed in neutral buffered formalin for histology or medium removed and aggregates frozen dry (−20° C.) for biochemical assays.
Luciferase Assay. Conditioned culture medium sampled from aggregates in 96-wells (20 μL/well) was assessed using a stabilized Gaussia Luciferase buffer mix (50 µl/well) for a final concentration of 0.09 M MES, 0.15M Ascorbic Acid, and 4.2 μM Coelenterazine in white 96-well plates. Luminescence was measured in a plate reader (25° C., relative light units (RLU), En Vision plate reader). An OT-2 (Opentrons) python coded robotic pipette was utilized for luciferase buffer addition to white plates (GreinerBio).

For assay [3], the system named is rat knee. The note with it: cited from earlier work.
Assay [4] deals with HuCol2gLuc aggregates. Nature of the assay: Biochemical assays (DNA, GAG, total collagen) on HuCol2gLuc aggregates. The format is cell-based, human. The protocol: Biochemical Assays. Aggregates frozen at day 22, were thawed with PBS, and digested with Papain (25 μg/ml, Sigma, P4762, in 2 mM cysteine; 50 mM sodium phosphate; 2 mM EDTA at a pH 6.5, 100 μl) at 65° C. overnight. Plates were sealed with a qPCR adhesive sealing film (USA Scientific), a silicone sheet, and steel plates clamped to the plate to prevent evaporation during digestion. Half of the digest (50 μl) was transferred to another plate and frozen for hydroxyproline assessment. In the remaining digest, papain was inactivated with 0.1M sodium hydroxide (NaOH, 50 μl) followed by NaOH neutralization (100 mM Na2HPO4, 0.1 N HCL, pH 1.82, 50 μl). To quantitate DNA content, samples of the neutralized digest (20 μl) were combined with buffered Hoechst dye (#33258, 667 ng/ml, phosphate buffer pH 8, 100 μl) and fluorescence measured at an excitation of 365 nm and emission of 460 nm. For GAG assessment, 1,9-Dimethyl-methylene blue solution (195 μl) was added to neutralized digests (5 μl) and absorbance measured at 595 nm and 525 nm. Readings were corrected by subtracting 595 nm reading from 525 nm. Micrograms of DNA and GAG were calculated using a Calf thymus DNA standard (Sigma) or Chondroitin Sulfate standard (Seikagaku Corp.), respectively.
For hydroxyproline (HP) quantification, the frozen digests (50 μl) were thawed at room temperature and incubated overnight at 105° C. with 6M hydrochloric acid (200 μl). Plates were sealed to prevent evaporation. Samples were then dried at 70° C. overnight with a hydroxyproline standard (Sigma). Copper sulfate (0.15 M, 10 μl) and NaOH (2.5 M, 10 μl) were added to each well and incubated at 50° C. for 5 minutes, followed by hydrogen peroxide (6%, 10 μl) for 10 minutes. Sulfuric acid (1.5 M, 40 μl) and Ehrlich's reagent (20 μl) were added and samples incubated at 70° C. for 15 minutes. Absorbance was measured at 505 nm. Micrograms of hydroxyproline were calculated using the standard. Total collagen was calculated by the following formula (μg of HP×7.6=μg Total Collagen).

The mark [5] stands for this setting: validation, donor 2, 10 ng/ml TGF-β1.

As to `[Co]` [cobalt, Cobalt], the “luminescence with a single vitamin or mineral vs basal media alone” value (“luminescence … vs basal media alone” for short) in assay [1] is given as “higher luminescence”.

For the molecule `C=C1C(=O)OC2C1CCC(C)C1(O)C=CC(=O)C21C` (centres unmarked) [Parthenicin], the “stimulation of type II collagen production in the screen of natural products” value (from here on “stimulation”) in assay [2] is recorded as “stimulate type II collagen”.

As for `N[C@@H](Cc1cc(I)c(Oc2cc(I)c(O)c(I)c2)c(I)c1)C(=O)O` [thyroxine, Thyroxine], the “luminescence … vs basal media alone” value in assay [1] is “higher luminescence”.

Consider `O=C(O)CCCC[C@@H]1SC[C@@H]2NC(=O)N[C@@H]21` [Vitamin B7, Biotin], for which, in assay [1], the luminescence was ~40,000 RLU and the “luminescence … vs basal media alone” value is recorded as “higher luminescence”.

`Cl.Cl.Fc1ccc(N2CCN(CCC3OCCc4ccccc43)CC2)cc1` (centres unmarked) [PNU 96415E, reference compound]: in assay [2] (donor 2, 12.5 μM and 25 μM), the “cumulative luminescence vs untreated controls” value is “significant increase in luminescence” and the “luminescence vs untreated controls” value is given as “increased luminescence”.

Consider `CC(C)CC(=O)Nc1cncc(-c2ccc3[nH]nc(-c4nc5cncc(-c6cccc(F)c6)c5[nH]4)c3c2)c1` [SM04690, reference compound], for which the “in vivo scaled amount” value in assay [3] is given as 0.3 μg/rat knee.

In the case of `Nc1nc(=O)c2c([nH]1)NCC(CNc1ccc(C(=O)N[C@@H](CCC(=O)[O-])C(=O)[O-])cc1)N2C=O.[Ca+2]` (some centres unmarked) [Calcium folinate, reference compound], in assay [2], the “stimulation” value is reported as “stimulate type II collagen”.

For the molecule `[Cr]` [chromium, Chromium], the “luminescence … vs basal media alone” value in assay [1] is on record as “higher luminescence”.

In the case of `CC(C)=CC(=O)O[C@H]1[C@H]2[C@H](OC(=O)[C@H]2C)[C@H](O)[C@@H](C)[C@@H]2C=CC(=O)[C@]21C` [Fastigilin B], the “stimulation” value in assay [2] was “stimulate type II collagen”.

Regarding `Nc1ncnc2c1ncn2C1C=C(CO)C(O)C1O` (centres unmarked) [5-(6-Aminopurin-9-yl)-3-(hydroxymethyl)cyclopent-3-ene-1,2-diol], the “stimulation” value in assay [2] is “stimulate type II collagen”.

On to 6-Hydroxy-2-methoxyaporphine, for which the “stimulation” value in assay [2] was “stimulate type II collagen”.

In the case of Vitamin A, the “luminescence … vs basal media alone” value in assay [1] is recorded as “detrimental to chondrogenesis”.

`COc1cc2c3c(c1O)-c1cc(O)ccc1C[C@@H]3N(C)CC2` [(-)-Apoglaziovine]: the “stimulation” value in assay [2] is on record as “stimulate type II collagen”.

In the case of `[Cu]` [Copper], the luminescence in assay [1] is ~40,000 RLU.

Turning to `COC(=O)[C@H]1[C@H]2C[C@@H]3c4[nH]c5ccccc5c4CCN3C[C@H]2C[C@@H](OC(=O)c2cc(OC)c(OC)c(OC)c2)[C@@H]1OC` [Drug 204, Deserpidine, reference compound], the “stimulation” value is recorded as “stimulatory effects” in assay [2] (listed as 204) and “stimulate type II collagen” in assay [2] (listed as Deserpidine). In addition, the “day 22 luminescence normalized to DMSO vehicle control” value in assay [2] (screen, 5 μM, 1 ng/ml TGF-β1) is “significant increase in luminescence”. Further, in assay [2] (screen, 5 μM, 1 ng/ml TGF-β1), the “trend of luminescence over 22 days normalized to DMSO” value is recorded as “initial decrease in expression with continued increase in luminescence after day 8”. Further, the cumulative luminescence result in assay [2] (validation, donor 1) is recorded as “no significant increase”. Moreover, the “luminescence over 22 days vs untreated control” value was “increase in luminescence” in assay [2] (validation, donor 1, 10 ng/ml TGF-β1) and “not donor 2” in assay [2] (setting [5]). For the same molecule, the “glycosaminoglycan (GAG) content” value in assay [4] (day 22, donor 1) was “no effect on GAG”; in assay [4] (day 22, donor 2, untreated 15 μg), 10 µg. In addition, the total collagen result is on record as “no significant increase in total collagen” in assay [4] (day 22, donor 1) and “no significant increase in total collagen” in assay [4] (day 22, donor 2, untreated ~14 μg). Further, the DNA content result in assay [4] (day 22, donor 2, vs untreated) is on record as “significant decrease in DNA content”.

For the molecule Promoline [Drug 84], the “luminescence over 22 days vs untreated control” value in assay [2] (setting [5]) was “increased luminescence”.

As to `CC(=O)CCCCn1c(=O)c2c(ncn2C)n(C)c1=O` [Pentoxifylline, reference compound], the “stimulation” value in assay [2] is listed as “stimulate type II collagen”.

Take `COc1cc2c3c(c1O)-c1cc(O)ccc1CC3N(C)CC2` (centres unmarked) [1,10-Dihydroxy-2-methoxyaporphine]: the “stimulation” value in assay [2] is given as “stimulate type II collagen”.

`c1ccc(N2CCN(Cc3nc4ccccc4[nH]3)CC2)nc1` [ABT 724, reference compound]: the “luminescence vs untreated control” value in assay [2] (donor 2, 0.1 μM or 1 μM) is recorded as “no effect”; in assay [2] (donor 2, 10 μM and 25 μM, from day 8 to day 22) it was “increase in luminescence”. In addition, the “cumulative luminescence vs untreated controls” value in assay [2] (donor 2, 10 μM and 25 μM) is listed as “significant increase in luminescence”.

Consider `CC[C@]1(O)C[C@H]2CN(CCc3c([nH]c4ccccc34)[C@@](C(=O)OC)(c3cc4c(cc3OC)N(C=O)[C@H]3[C@@](O)(C(=O)OC)[C@H](OC(C)=O)[C@]5(CC)C=CCN6CC[C@]43[C@@H]65)C2)C1` [Vincristine sulfate, reference compound], for which the “stimulation” value in assay [2] is reported as “stimulate type II collagen”.
